Source: patent publication US20260209212A1, “HETEROCYCLIC GLP-1 AGONISTS” (Gasherbrum Bio, Inc., priority 2022, published 2026)

What follows are compounds tested against GLP-1 Receptor (Homo sapiens, UniProt P43220) (assay: GLP-1R agonist cAMP stimulation assay). Conditions: HEK293/GLP1R/CRE-LUC cells stably expressing the GLP-1 Receptor; cAMP dynamic 2 Kit (Cisbio); 30 min at 37° C.
Type: cell-based
Protocol: Activation of GLP-1 receptor is known to stimulate cyclic AMP (cAMP) production in cells which indicates primary coupling to the G as subunit of the G protein heterotrimeric complex.
To optimize functional activity directed toward G as coupling, a HEK293/CRE-Luc cell line developed by HDB stably expressing the GLP-1 Receptor was used. 200× concentration of compound working solutions were prepared (Agilent Technologies Bravo) with ½ log serial dilution in 384-well Echo LDV plate (Labcyte, Cat #LP-0200). 50 nL/well 200× concentration of compound working solutions were moved to 384-well white low volume plate (Greiner, Cat #784075) using Labcyte ECHO550.1×10^5 cells/mL HEK293/GLP1R/CRE-LUC (HD Biosciences) cell suspensions prepared with assay buffer [DPBS containing 0.5 mM IBMX (Sigma, Cat #I5879) and 0.1% BSA (GENVIEW, Cat #FA016-100 g)], 10 μL cell suspensions were added to each well of previous generated assay plate which already contains 50 nL compound at 200× concentration using ThermoFisher Multidrop Combi (1000 cells/well). Seal the plate and incubate at 37° C. with 5% CO2 for 30 min.
After incubation the cAMP assay signal was generated using cAMP dynamic 2 Kit (Cisbio). 5 μL cAMP-d2 working solution was added to each well, followed with 5 μL Anti-cAMP antibody-cryptate working solution added to each well using ThermoFisher Multidrop Combi. Incubate at room temperature for 1 hour protected from light. Read the fluorescence at 665 and 615 nm with Reader PerkinElmer EnVision.

Sequence of GLP-1 Receptor (P43220 24-463): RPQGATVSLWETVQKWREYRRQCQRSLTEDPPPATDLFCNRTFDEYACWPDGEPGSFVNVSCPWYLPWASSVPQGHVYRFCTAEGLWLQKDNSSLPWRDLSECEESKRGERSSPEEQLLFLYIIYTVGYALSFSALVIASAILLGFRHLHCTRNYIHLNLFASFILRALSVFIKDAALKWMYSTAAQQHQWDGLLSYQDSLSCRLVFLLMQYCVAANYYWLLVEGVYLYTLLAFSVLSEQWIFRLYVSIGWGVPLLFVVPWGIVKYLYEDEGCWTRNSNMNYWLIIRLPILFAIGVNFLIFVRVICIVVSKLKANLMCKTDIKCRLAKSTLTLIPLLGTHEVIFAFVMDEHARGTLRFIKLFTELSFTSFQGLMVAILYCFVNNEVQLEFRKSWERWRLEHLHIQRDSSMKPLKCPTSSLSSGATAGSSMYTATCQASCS

SMILES | EC50 [nM]
O=C(O)c1ccc2nc(CN3CCC(c4cccc5c4OC[C@@H](c4ccc(Cl)c6ccoc46)O5)CC3)n(C[C@@H]3CCO3)c2c1 [Compound 101] | 0.024
O=C(O)c1ccc2nc(CN3CCC(c4cccc5c4OC[C@@H](c4ccc6cnn(CC(F)F)c6c4)O5)CC3)n(C[C@@H]3CCO3)c2c1 [Compound 102, 2-({4-[(2R)-2-[1-(2,2-difluoroethyl)-1H-indazol-6-yl]-2,3-dihydro-1,4-benzodioxin-5-yl]piperidin-1-yl}methyl)-1-{[(2S)-oxetan-2-yl]methyl}-1H-1,3-benzodiazole-6-carboxylic acid] | 0.065
N#Cc1ccc([C@@H]2COc3c(cccc3C3CCN(Cc4nc5ccc(C(=O)O)c(F)c5n4C[C@@H]4CCO4)CC3)O2)cc1 [Compound 103] | 0.057
N#Cc1ccc([C@@H]2COc3c(cccc3C3CCN(Cc4nc5c(F)cc(C(=O)O)cc5n4C[C@@H]4CCO4)CC3)O2)cc1 [Compound 104, 2-({4-[(2R)-2-(4-cyanophenyl)-2,3-dihydro-1,4-benzodioxin-5-yl]piperidin-1-yl}methyl)-4-fluoro-1-{[(2S)-oxetan-2-yl]methyl}-1H-1,3-benzodiazole-6-carboxylic acid] | 0.027
CCn1cncc1Cn1c(CN2CCC(c3cccc4c3OC[C@@H](c3ccc(C#N)cc3)O4)CC2)nc2ccc(C(=O)O)cc21 [Compound 105] | 0.012
N#Cc1ccc([C@@H]2COc3c(cccc3C3CCN(Cc4nc5ccc(C(=O)O)cc5n4CC4CCOC4)CC3)O2)cc1 (stereo partly drawn) [Compound 106, 2-({4-[(2R)-2-(4-cyanophenyl)-2,3-dihydro-1,4-benzodioxin-5-yl]piperidin-1-yl}methyl)-1-[(oxolan-3-yl)methyl]-1H-1,3-benzodiazole-6-carboxylic acid] | 1.6
N#Cc1ccc([C@@H]2COc3c(cccc3C3CCN(Cc4nc5ccc(C(=O)O)cc5n4CC4(C#N)CC4)CC3)O2)cc1 [Compound 107] | 0.18
N#Cc1ccc([C@@H]2COc3c(cccc3C3CCN(Cc4nc5c(F)cc(C(=O)O)c(F)c5n4C[C@@H]4CCO4)CC3)O2)cc1 [Compound 108, 2-({4-[(2R)-2-(4-cyanophenyl)-2,3-dihydro-1,4-benzodioxin-5-yl]piperidin-1-yl}methyl)-4,7-difluoro-1-{[(2S)-oxetan-2-yl]methyl}-1H-1,3-benzodiazole-6-carboxylic acid] | 0.025
C[C@H]1CC(c2cccc3c2OC[C@@H](c2ccc(C#N)cc2)O3)CCN1Cc1nc2c(F)cc(C(=O)O)cc2n1C[C@@H]1CCO1 (stereo partly drawn) [Compound 109] | 0.041
N#Cc1ccc([C@@H]2COc3c(cccc3C34CCN(Cc5nc6ccc(C(=O)O)cc6n5C[C@@H]5CCO5)CC3C4)O2)cc1 (stereo partly drawn) [Compound 110, 2-({6-[(2R)-2-(4-cyanophenyl)-2,3-dihydro-1,4-benzodioxin-5-yl]-3-azabicyclo[4.1.0]heptan-3-yl}methyl)-1-{[(2S)-oxetan-2-yl]methyl}-1H-1,3-benzodiazole-6-carboxylic acid] | 100
O=C(O)c1cc(F)c2nc(CN3CCC(c4cccc5c4OC[C@@H](c4ccc(Cl)cc4)O5)CC3)n(C[C@@H]3CCO3)c2c1 [Compound 111, 2-({4-[(2R)-2-(4-chlorophenyl)-2,3-dihydro-1,4-benzodioxin-5-yl]piperidin-1-yl}methyl)-4-fluoro-1-{[(2S)-oxetan-2-yl]methyl}-1H-1,3-benzodiazole-6-carboxylic acid] | 0.017
N#CCC1(Cn2c(CN3CCC(c4cccc5c4OC[C@@H](c4ccc(C#N)cc4)O5)CC3)nc3c(F)cc(C(=O)O)cc32)CC1 [Compound 112] | 0.026
CC(=O)N1C[C@H](F)C[C@@H]1Cn1c(CN2CCC(c3cccc4c3OC[C@@H](c3ccc(C#N)cc3)O4)CC2)nc2ccc(C(=O)O)cc21 [Compound 113] | 4
CO[C@@H]1COC[C@@H]1n1c(CN2CCC(c3cccc4c3OC[C@@H](c3ccc(C#N)cc3)O4)CC2)nc2ccc(C(=O)O)cc21 [Compound 114, 2-({4-[(2R)-2-(4-cyanophenyl)-2,3-dihydro-1,4-benzodioxin-5-yl]piperidin-1-yl}methyl)-1-[(3S,4S)-4-methoxyoxolan-3-yl]-1H-1,3-benzodiazole-6-carboxylic acid] | 0.024
O=C(O)c1cc(F)c2nc(CN3CCC(c4cccc5c4OC[C@@H](c4ccc(C(F)F)cc4)O5)CC3)n(C[C@@H]3CCO3)c2c1 [Compound 115] | 0.055
O=C(O)c1cc(F)c2nc(CN3CCC(c4cccc5c4OC[C@@H](c4ccc(C(F)(F)F)cc4)O5)CC3)n(C[C@@H]3CCO3)c2c1 [Compound 116] | 0.029
O=C(O)c1ccc2nc(CN3CC=C(c4cccc5c4OC[C@@H](c4ccc6cnn(CC(F)F)c6c4)O5)CC3)n(C[C@@H]3CCO3)c2c1 [Compound 117] | 0.42
COc1cc(C(=O)O)cc2c1nc(CN1CCC(c3cccc4c3OC[C@@H](c3ccc(C#N)cc3)O4)CC1)n2C[C@@H]1CCO1 [Compound 118, 2-({4-[(2R)-2-(4-cyanophenyl)-2,3-dihydro-1,4-benzodioxin-5-yl]piperidin-1-yl}methyl)-4-methoxy-1-{[(2S)-oxetan-2-yl]methyl}-1H-1,3-benzodiazole-6-carboxylic acid] | 0.011
COc1cc(C(=O)O)cc2c1nc(CN1CCC(c3cccc4c3OC[C@@H](c3ccc(Cl)cc3)O4)CC1)n2C[C@@H]1CCO1 [Compound 119, 2-({4-[(2R)-2-(4-chlorophenyl)-2,3-dihydro-1,4-benzodioxin-5-yl]piperidin-1-yl}methyl)-4-methoxy-1-{[(2S)-oxetan-2-yl]methyl}-1H-1,3-benzodiazole-6-carboxylic acid] | 0.011
COc1cc(C(=O)O)cc2c1nc(CN1CCC(c3cccc4c3OC[C@@H](c3ccc(Cl)c5ccoc35)O4)CC1)n2C[C@@H]1CCO1 [Compound 120, 2-({4-[(2R)-2-(4-chloro-1-benzofuran-7-yl)-2,3-dihydro-1,4-benzodioxin-5-yl]piperidin-1-yl}methyl)-4-methoxy-1-{[(2S)-oxetan-2-yl]methyl}-1H-1,3-benzodiazole-6-carboxylic acid] | 0.005
O=C(O)c1cc(F)c2nc(CN3CCC(c4cccc5c4OC[C@@H](c4ccc(Cl)cc4)O5)CC3)n(C[C@@H]3CCO3)c2c1F [Compound 121] | 0.031
O=C(O)c1cc(F)c2nc(CN3CCC(c4cccc5c4OC[C@@H](c4ccc(Cl)c6ccoc46)O5)CC3)n(C[C@@H]3CCO3)c2c1 [Compound 122, 2-({4-[(2R)-2-(4-chloro-1-benzofuran-7-yl)-2,3-dihydro-1,4-benzodioxin-5-yl]piperidin-1-yl}methyl)-4-fluoro-1-{[(2S)-oxetan-2-yl]methyl}-1H-1,3-benzodiazole-6-carboxylic acid] | 0.0012
CO[C@H]1COC[C@H]1n1c(CN2CCC(c3cccc4c3OC[C@@H](c3ccc(Cl)cc3)O4)CC2)nc2c(F)cc(C(=O)O)cc21 [Compound 123] | 1.9
COc1cc(C(=O)O)cc2c1nc(CN1CCC(c3cccc4c3OC[C@@H](c3ccc(C#N)cc3)O4)CC1)n2[C@@H]1COC[C@@H]1OC [Compound 124] | 0.68
O=C(O)c1ccc2nc(CN3CC=C(c4cccc5c4OC[C@@H](c4ccc(Cl)cc4)O5)CC3)n(C[C@@H]3CCO3)c2c1 [Compound 125] | 0.77
CC1=C(c2cccc3c2OC[C@@H](c2ccc(Cl)cc2)O3)CCN(Cc2nc3ccc(C(=O)O)cc3n2C[C@@H]2CCO2)C1 [Compound 126] | 1.6
O=C(O)c1ccc2nc(CN3CCC4(c5cccc6c5OC[C@@H](c5ccc(Cl)cc5)O6)CC4C3)n(C[C@@H]3CCO3)c2c1 (stereo partly drawn) [Compound 127] | 500
O=C(O)c1ccc2nc(CN3CCC(c4nccc5c4OC[C@@H](c4ccc(Cl)cc4)O5)CC3)n(C[C@@H]3CCO3)c2c1 [Compound 128] | 0.79
O=C(O)c1ccc2nc(CN3CCC(c4c(F)ccc5c4OC[C@@H](c4ccc(Cl)cc4)O5)CC3)n(C[C@@H]3CCO3)c2c1 [Compound 129, 2-[[4-[(2R)-2-(4-chlorophenyl)-6-fluoro-2,3-dihydro-1,4-benzodioxin-5-yl]-1-piperidyl]methyl]-3-[[(2S)-oxetan-2-yl]methyl]benzimidazole-5-carboxylic acid] | 0.38
O=C(O)c1ccc2nc(CN3CCC(c4ccnc5c4OC[C@@H](c4ccc(Cl)cc4)O5)CC3)n(C[C@@H]3CCO3)c2c1 [Compound 130, 2-((4-((R)-3-(4-chlorophenyl)-2,3-dihydro-[1,4]dioxino[2,3-b]pyridin-8-yl)piperidin-1-yl)methyl)-1-(((S)-oxetan-2-yl)methyl)-1H-benzo[d]imidazole-6-carboxylic acid] | 0.16
